Literature values in patent US20210170044A1, “SYSTEMS AND METHODS FOR LYSOSOME INDUCED IMMUNOGENIC CELL DEATH” (Antigenesis LLC, priority 2017, published 2021).

Tested on: advanced hepatocellular carcinoma
Conditions: patients with advanced hepatocellular carcinoma receiving 5-fluorouracil; pravastatin as well vs control group

In the case of `O=c1[nH]cc(F)c(=O)[nH]1` [5-fluoroucacil], the median survival time is given as 9 months.
